The text below walks through data of US11925656B2, “Biological total joint replacement” (priority 2014, dated 2024).

“Also recorded” adds a separate entry of the source.

Data set [1] relates to lubricin. Nature of the data set: Lubricin in synovium by ELISA, rabbit arthritis model. Conditions: prophylactic groups, oral days 1-42, vs control. In kind it is in vivo. An excerpt: (§1) The study was approved by the Institutional Animal Care and Use Committee (IACUC) of Thomas D. Morris, Inc. 28 New Zeeland White rabbits were selected for the study. Six such were randomly assigned to one of four groups; prophylactic cyanidin-3-glycoside (C3G)(referred to figures as Cl 1-42), prophylactic protocatechuic acid (PCA)(referred to in figures as PCA 1-42), therapeutic C3G (referred to in figures as Cl 42-70), and therapeutic PCA (referred to in figures as PCA 42-70). There were four controls, two each to the prophylactic and therapeutic groups.
(§2) The prophylactic groups were given PROC3G™ by Chromadex™ at a dose of 30 mg/kg of body weight of either C3G or PCA by mouth, 7 times per week for 42 days. The therapeutic groups' treatment was initiated on day 42 with a daily dose of PROC3G™ by Chromadex™ 7 times per week for 4 weeks. The dose of 30 mg of cyanidin-3-glucoside per kg of body weight calculates to be 0.177 millimoles per kg body weight. The dose of PCA was the same in terms of millimoles per kg body weight.
(§3) The experimental rabbits underwent surgery with an intent to create a severe degenerative arthritis by cutting the medial collateral ligament, the anterior cruciate ligament and removing the medial meniscus. A partial thickness laceration was made longitudinally on the lateral femoral condyle for future assessment of potential for repair. The surgery was performed by two licensed veterinarians. One surgeon was very experienced. The other surgeon was a recent graduate.
(§4) At necropsy, the synovial fluid was harvested percutaneously and upon arthrotomy. The synovium was harvested from posterior compartment. The patella and adjacent synovium was procured as a separate specimen as was the medial and lateral condyle.
(§5) The synovial fluid and half of the synovium was frozen and sent to BioBoston Laboratory for chemical analysis. The other half of the synovium and bone was sent to McClinchery Histology in Stockbridge, Mich. for histological preparation and staining. […]
Synovial Tissue (Synovium)—Detected by ELISA

For data set [2], the system named is C-reactive protein (CRP). The data set is described as follows: C-reactive protein (CRP) in plasma after knee surgery. Type of data set: in vivo, rabbit. On the procedure: C-reactive protein (CRP) is a protein found in the blood plasma, the levels of which rise in response to inflammation (i.e., C-reactive protein is an acute-phase protein). Its physiological role is to bind to phosphocholine expressed on the surface of dead or dying cells (and some types of bacteria) in order to activate the complement system via the C1Q complex. CRP rises within two hours of the onset of inflammation, up to a 50,000-fold, and peaks at 48 hours. […] CRP is thus a screen for inflammation.
Knee surgery was performed to create a severe irreparable degenerative knee joint, which in turn elevated the CRP in the plasma to average of […]. A historical normal amount of CRP is 3.15 micrograms/mL. See Sun H, et al., Am J Pathol. October 2005; 167(4): 1139-1148. Rabbit CRP levels are close to the mean values of healthy middle-aged humans (2.82 mg/L) reported in the literature. See Ockene I S, et al., Clin Chem. 2001; 47:444-450.
The controls in the study were animals that had surgery and received no treatment. The prophylaxis test groups had the surgery and received 6 weeks of oral C-3-G or PCA 7 times per week as described in example 1. The therapeutic treatment group had surgery, received no treatment for 41 days and then at day 42 received oral C-3-G or PCA 7 times per week as described in example 1.

Data set [3] relates to collagen II. Nature of the data set: Collagen II expression in cartilage, immunohistochemical staining, rabbit arthritis model. In kind it is in vivo. Particulars: prophylactic, minimum of 30 mg/kilo gram body weight by oral route, compared to the controls.
Description: as §1, §2
(§6) The experimental rabbits underwent surgery with an intent to create a severe degenerative arthritis by cutting the medial collateral ligament, the anterior cruciate ligament and removing the medial meniscus. A partial thickness laceration was made longitudinally on the lateral femoral condyle for future assessment of potential for repair. […]

Data set [4] has as its system IGF-1 gene expression. Nature of the data set: IGF-1 gene expression in synovium by real-time PCR, rabbit arthritis model. Type of data set: in vivo. Conditions: rabbits, either oral or intraarticular route.
Description: as §1
(§7) The prophylactic groups were given PROC3G™ by Chromadex™ at a dose of 30 mg/kg of body weight of either C3G or PCA by mouth, 7 times per week for 42 days. The therapeutic groups' treatment was initiated on day 42 with a daily dose of PROC3G™ by Chromadex™ 7 times per week for 4 weeks. The dose of 30 mg of cyanidin-3-glucoside per kg of body weight calculates to be 0.177 millimoles per kg body weight. The dose of PCA was the same in terms of millimoles per kg body weight. […]
See FIG. 5B. • Synovial Tissue (Synovium)-Detected by ELISA • IGF-1 was increased in all groups. See FIG. 8B. • Synovial Tissue (Synovium)-Gene Expression Level Detected by Real-Time PCR • IGF-1 was increased in all groups.
Background: Real-time PCR tracks product formation cycle by cycle.

The subject of data set [5] is human synovial explants. Particulars: PCA directly applied; cited from earlier work.
Data set [6] concerns MMP-3. The data set is described as follows: MMP-3 expression in cartilage, histochemical staining and scoring, rabbit arthritis model. In kind it is in vivo.
Description: as §1, §2, §3, §4
The synovial fluid and half of the synovium was frozen and sent to BioBoston Laboratory for chemical analysis. The other half of the synovium and bone was sent to McClinchery Histology in Stockbridge, Mich. for histological preparation and staining. Patellar slides were sent to BioBoston Contract Laboratories for histochemical staining and ICRS grading. Sample slides were examined for Lubricin at Myron Spector laboratory.
MMP3 is known as matrix metallopeptidase 3, or stromelysin 1 or progelatinase. Proteins of the matrix metalloproteinase (MMP) family are involved in the breakdown of 20 extracellular matrix in normal physiological processes, such as embryonic development, reproduction, and tissue remodeling, as well as in disease processes, such as arthritis and metastasis. […] See FIG. 2C. • Synovial Tissue (Synovium)—Detected by ELISA • MMP-3 levels were reduced in all four groups. See FIG. 9B. • Synovial Tissue (Synovium)—Gene Expression Level Detected by Real-Time PCR • MMP-3 gene expression was decreased in all groups. See FIG. 13A. • Histochemical Scoring Analysis

Data set [7] deals with lymphocytes. The data set is described as follows: Number of lymphocytes in synovial fluid, rabbit arthritis model. In kind it is in vivo.
Description: as §1, §2, §3, §4
In addition to testing for the increase or decrease of various factors and cytokines, tests were run to count the number of white blood cells, including polymorphonuclear leukocytes (PMN), macrophages (Mac) and lymphocytes (Lym). […]

Data set [8] has as its system MMP3. Nature of the data set: MMP3 in synovial fluid by ELISA, rabbit arthritis model. In kind it is in vivo. Particulars: therapeutic groups, oral days 42-70, vs control.
Description: as §1, §7
MMP3 is known as matrix metallopeptidase 3, or stromelysin 1 or progelatinase. […] See FIG. 2C. • Synovial Tissue (Synovium)—Detected by ELISA • MMP-3 levels were reduced in all four groups. See FIG. 9B. • Synovial Tissue (Synovium)—Gene Expression Level Detected by Real-Time PCR • MMP-3 gene expression was decreased in all groups. […]

Data set [9] relates to TNF-alpha. Nature of the data set: TNF-alpha in synovial fluid by ELISA, rabbit arthritis model. In kind it is in vivo. Conditions: therapeutic groups, oral 4 weeks, vs control; not statistically significant.
Description: as §1, §2
The experimental rabbits underwent surgery with an intent to create a severe degenerative arthritis by cutting the medial collateral ligament, the anterior cruciate ligament and removing the medial meniscus. […]
(§8) Synovial Fluid—Detected by ELISA
(ELISA stands for enzyme-linked immunosorbent assay.)

Data set [10] deals with ADAMTS-5. The data set is described as follows: ADAMTS-5 in synovial fluid by ELISA, rabbit arthritis model. In kind it is in vivo. Conditions: therapeutic groups, oral days 42-70, vs control.
Description: as §1, §2, §3, §4, §5, §8

Data set [11] has as its system MRSA and Pseudomonas. Particulars: tape-stripped rodent backs contaminated with MRSA and Pseudomonas; cited from earlier work.
The conditions of data set [12]: human; cited from earlier work.
For data set [13], the system named is lubricin. Nature of the data set: Lubricin expression in cartilage, immunohistochemical staining, rabbit arthritis model. Particulars: prophylactic, minimum of 30 mg/kilo gram body weight by oral route, compared to the controls. In kind it is in vivo.
Description: as §1, §2, §6

The test system of data set [14] is aggrecan. The data set is described as follows: Aggrecan expression in patellar cartilage, rabbit arthritis model. Type of data set: in vivo. Conditions: prophylactic, minimum of 30 mg/kilo gram body weight by oral route, compared to the controls.
Description: as §1, §2, §6

The test system of data set [15] is human mesenchymal stem cells. Conditions: in vitro, dose related; cited from earlier work.
[16] abbreviates: prophylactic groups, oral days 1-42, vs control.
Setting [17] is: therapeutic groups, oral days 42-70, vs control.

Take `O=C(O)c1ccc(O)c(O)c1` [PCA, Protocatechuic acid (3,4-dihydroxybenzoic acid)]: the lubricin in synovium entry in [1] is given as “increased”. In addition, the “CRP, an indicator of inflammation” value in [2] (given by oral route immediately after injury) is “kept to normal levels”. Also, the “plasma CRP level” value in data set [2] (prophylaxis test group, 6 weeks oral treatment from surgery, untreated control at 42 days 8.8 mg/mL) was 3.6 micrograms/mL; in [2] (therapeutic group, no treatment for 6 weeks after surgery, then 4 weeks oral treatment), 43 mg/mL. Further, the “type II collagen in articular cartilage ECM” value in data set [3] is recorded as “increased”. Further, the “IGF-1 genetic expression in the synovium” value in data set [4] is given as “increase”. Moreover, in [5], the “IGF-1 in human synovial explants” value is listed as “increased”. For the same compound, the “histochemical staining for the presence of MMP-3 in cartilage” value was “no staining” in [6] (prophylactic groups, oral days 1-42) and “no staining” in [6] (therapeutic groups, oral days 42-70). Also, the “MMP-3 expression in cartilage” value in data set [6] (setting [16]) and in data set [6] (setting [17]) was “reduced” in each case. Also, the “number of lymphocytes in synovial fluid” value in data set [7] (setting [16]) and in data set [7] (setting [17]) was “decreased” each time. Besides, the “MMP3 in synovial fluid” value in data set [8] was “decreased”. In data set [9], the “TNF-alpha levels in synovial fluid” value is “slight increase”. The “ADAMTS-5 in synovial fluid” value in data set [10] is recorded as “decreased”. For the same compound, in [11], the “collagen layer in the dermis” value is reported as “production of collagen layer in the dermis”. The “re-epithelialization of the skin wound” value in [11] was “re-epithelialization of the wound”. Also, in data set [11], the “time to disinfect the wound” value was 2 days. Further, in data set [12], the toxicity entry was “non-toxic; also recorded: no known human toxic effects”. In data set [13], the “lubricin on the articular cartilage surface” value was “increased”. Also, the “aggrecan in articular cartilage ECM” value in data set [14] is recorded as “increased”. Further, the “bone making markers in human mesenchymal stem cells” value in [15] is listed as “produce bone making markers”.
